Common to all, as to assay type: cell-based, human
Data set [1] has as its system SW480 colon carcinoma cells. The data set is described as follows: MTT assay (cytotoxicity). On the procedure:
(§1) CH1/PA-1 ovarian teratocarcinoma cells (provided by L. R. Kelland, CRC Centre for Cancer Therapeutics, Institute of Cancer Research, Sutton, UK; confirmed by STR profiling as PA-1 ovarian teratocarcinoma cells at Multiplexion, Heidelberg, Germany), SW480 colon carcinoma and A549 non-small cell lung cancer cells (both obtained from the American Type Culture Collection, Manassas, VA, USA) were grown as adherent cultures in 75 cm² culture flasks (CytoOne, Starlab, Hamburg, Germany) by using minimal essential medium (MEM) supplemented with 1 mM sodium pyruvate, 4 mM L-glutamine, 1% (v/v) nonessential amino acids from 100-fold stock (all purchased from Sigma-Aldrich) and 10% heat-inactivated fetal bovine serum (BioWest, Nuaillé, France). Cells were maintained under standard culture conditions with 5% CO2 at 37 °C in a humidified atmosphere.
(§2) The 3-(4,5-dimethylthiazol-2-yl)-2,5-diphenyl-2H-tetrazolium bromide (MTT, Acros Organics, Geel, Belgium) assay was used to detect the cytotoxicity of the compounds after 24 h and 96 h incubation. In brief, cells were harvested from culture flasks and the following cell numbers (each in 100 µL) were seeded into 96-well culture plates (CytoOne, tissue culture treated, Starlab, Hamburg, Germany) for 24 h incubation: 1 × 10^4 (CH1/PA-1), 1 × 10^4 (SW480) and 1.5 × 10^4 (A549) cells per well; and for 96 h incubation: 1 × 10^3 (CH1/PA-1), 2 × 10^3 (SW480) and 3 × 10^3 (A549) cells per well. After 24 h, cells resuming their exponential growth rate were treated with test compounds at nine concentrations obtained by serial two-fold dilution. Stock solutions were prepared in DMSO (20 mM or 40 mM) and diluted in supplemented MEM. An amount of 100 µL of each concentration was added to the plates in triplicates and cells were exposed for 24 or 96 h. Afterward, the medium was replaced with 100 µL of MTT solution (5 mg/mL) in phosphate-buffered saline (PBS, Sigma-Aldrich), diluted 1:7 in RPMI 1640 medium (supplemented with 4 mM L-glutamine and 10% heat-inactivated FBS). Upon cell-viability-dependent conversion of the yellow, water-soluble tetrazolium salt into purple formazan products for 4 h, the crystals were dissolved in 150 µL DMSO. The absorbance of the resulting solutions, which is directly proportional to the number of viable cells, was measured at 550 nm (and at 690 nm as a reference) with a microplate reader (ELx808, BioTek, Winoosky, VT, USA) and Gen5TM 3.08 software (BioTek). Blank-corrected optical densities were subjected to graphical evaluation and interpolation of IC50 values. At least three biologically and technically independent experiments were performed.

The test system of data set [2] is A549 non-small cell lung cancer cells. The data set is described as follows: MTT assay (cytotoxicity). On the procedure:
as §1, §2

Data set [3] concerns SW480 cells. The data set is described as follows: Cellular ruthenium accumulation (ICP-MS). The note with it: SW480, 2 h incubation, 37 °C. On the procedure:
SW480 cells were seeded at densities of 1.8 × 10^5 cells/well in 12-well plates (CytoOne, tissue culture treated) in 1 mL of supplemented MEM per well. (As CH1/PA-1 cells tend to detach during the required washing steps, cellular accumulation studies were performed only in SW480 cells). After 24 h, compounds dissolved in DMSO and diluted in MEM were added to the cells to final concentrations of 2 µM and 5 µM, and cells were incubated at 37 °C for 2 h. During incubation, the cell number was determined from three control wells of a plate seeded in parallel to the treatment plates. After the 2 h incubation, the medium was removed and all wells were washed with 3 × 1 mL PBS, and cells were lysed by adding 400 µL HNO3 per well for 1 h at room temperature. An amount of 300 µL of each lysate was added to 7.7 mL MilliQ water to get a total volume of 8 mL, and determination of the ruthenium content was carried out by ICP-MS. The measured amount of accumulated metal was normalized to the cell number and results were given in fg [Ru]/cell from at least three independent experiments. An Agilent 7800 ICP-MS instrument (Agilent Technologies, Tokyo, Japan) equipped with an Agilent SPS 4 autosampler (Agilent Technologies, Tokyo, Japan) was used to determine the ruthenium content. The ICP-MS parameters were tuned on a daily base to achieve high sensitivity. The ICP-MS was equipped with a MicroMist nebulizer with a sample uptake rate of ∼0.2 mL/min and standard nickel cones. The Agilent MassHunter software package (Workstation Software, Version C.01.04, 2018) was used for data evaluation. The instrumental parameters can be found in the supplementary information (Table S9).

Data set [4] deals with SW480 cells. Kind of data set: Cell cycle distribution (PI staining, flow cytometry). The note with it: SW480, 24 h. On the procedure:
(§3) For the flow-cytometric determination of cell cycle distribution, CH1/PA-1 (8 × 10^4 cells/well) and SW480 (1.2 × 10^5 cells/well) cells were seeded into 12-well plates (CytoOne, tissue culture treated) in 1 mL supplemented MEM. In the first 24 h, the cells were allowed to settle and resume exponential growth. […] Gemcitabine (Sigma-Aldrich, 0.01 and 0.05 µM) and etoposide (Sigma-Aldrich, 0.25, 0.5 and 1 µM) were used as positive controls. After removal of the treatment medium, cells were washed with 1 mL PBS and trypsinized. Cells were collected in Eppendorf tubes and centrifuged (300 g, 3 min), and the supernatant was discarded. In the following step, cells were washed with 1 mL PBS and resuspended in 500 µL PI/HFS buffer (0.1% v/v Triton X-100, 0.1% w/v sodium citrate, in PBS) containing 25 µg/mL propidium iodide (PI, 1.0 mg/mL, Sigma-Aldrich). The staining was carried out overnight at 4 °C in the dark, and 200 µL of the cell suspension was loaded into 96-well round bottom plates (Falcon). Samples were measured with a Millipore Guava easyCyte 8HT flow cytometer with GuavaSoft™ software in the InCyte-modus, and 10,000 events/sample were detected. Data were analyzed with FlowJo software v 10.8.1 (Tree Star, Ashland, OR, USA) using Watson algorithm. Percentages of cells in the three cell cycle phases (G1/G0, S and G2/M) were calculated by integrating the resulting histograms of fluorescence signals (Figures S29 and S30). Experiments were repeated at least three times. For statistical evaluation, an unpaired t-test with Welch’s correction was performed by using GraphPad PRISM software.

In another data set the test system is CH1/PA-1 cells. The description is as above. The note with it: CH1/PA-1, 24 h. On the procedure:
as §3

On to `CC1=C([O-])C([O-])(n2cccn2)c2ccccc2C1=O.[Ru+2].c1ccc2c(c1)CCC2` (racemic) [Compound 4], for which the IC50 stood at 3.5 ± 1.6 µM in data set [1] (24 h exposure), 0.52 ± 0.09 µM in data set [1] (96 h exposure), 119 ± 21 µM in data set [2] (24 h exposure) and 9.1 ± 1.5 µM in data set [2] (96 h exposure). Also, the results for the “Ru [102]/cell (cellular accumulation)” value in the data set on SW480 cells [3] (2 µM) and in the data set on SW480 cells [3] (5 µM) were 44 ± 3 fg and 100 ± 15 fg, respectively. The “Cells in G1/G0 phase” value is 24.7 ± 9.2% with SW480 cells [4] (0.31 µM); 19.0 ± 4.6% in the data set on SW480 cells [4] (0.63 µM); 20.7 ± 5.3% in the data set on SW480 cells [4] (1.25 µM); 25.1 ± 4.7% in the data set on CH1/PA-1 cells (50 µM); 23.9 ± 4.7% in the data set on CH1/PA-1 cells (100 µM); 24.5 ± 3.8% in the data set on CH1/PA-1 cells (200 µM). Besides, the “Cells in G2/M phase” value with SW480 cells [4] (0.31 µM) stood at 36.1 ± 3.0%; in the data set on SW480 cells [4] (0.63 µM), 45.8 ± 4.2%; in the data set on SW480 cells [4] (1.25 µM) it was 25.0 ± 5.8%; in the data set with CH1/PA-1 cells (50 µM), 39.8 ± 2.9%; with CH1/PA-1 cells (100 µM), 42.2 ± 4.7%; in the data set with CH1/PA-1 cells (200 µM) it was 40.0 ± 3.8%. Also, the “Cells in S phase” value was 42.1 ± 7.1% in the data set on SW480 cells [4] (0.31 µM); 42.0 ± 3.5% with SW480 cells [4] (0.63 µM); 57.1 ± 4.5% with SW480 cells [4] (1.25 µM); 38.4 ± 1.7% with CH1/PA-1 cells (50 µM); 38.3 ± 2.3% with CH1/PA-1 cells (100 µM); 39.1 ± 3.9% with CH1/PA-1 cells (200 µM).

Consider `CC1=C([O-])C([O-])(n2cccn2)c2ccccc2C1=O.[Ru+2].c1ccc(-c2ccccc2)cc1` (racemic) [Compound 5], for which the IC50 in data set [1] (24 h exposure) stood at 0.77 ± 0.24 µM; in data set [1] (96 h exposure) it was 0.072 ± 0.019 µM; in data set [2] (24 h exposure), 4.3 ± 1.6 µM; in data set [2] (96 h exposure), 1.2 ± 0.2 µM. For the same molecule, the results for the “Ru [102]/cell (cellular accumulation)” value with SW480 cells [3] (2 µM) and in the data set on SW480 cells [3] (5 µM) were 107 ± 14 fg and 336 ± 10 fg, respectively. Besides, the “Cells in G1/G0 phase” value in the data set on SW480 cells [4] (0.039 µM) was found to be 32.3 ± 12.9%; in the data set on SW480 cells [4] (0.078 µM), 19.5 ± 4.3%; in the data set with SW480 cells [4] (0.16 µM), 15.5 ± 1.3%; with CH1/PA-1 cells (12.5 µM), 20.1 ± 5.0%; in the data set on CH1/PA-1 cells (25 µM), 19.2 ± 4.8%; in the data set on CH1/PA-1 cells (50 µM), 17.5 ± 1.8%. The “Cells in G2/M phase” value in the data set with SW480 cells [4] (0.039 µM) was found to be 30.5 ± 6.2%; with SW480 cells [4] (0.078 µM) it was 35.9 ± 3.5%; with SW480 cells [4] (0.16 µM) it was 27.4 ± 1.3%; in the data set on CH1/PA-1 cells (12.5 µM), 39.1 ± 5.4%; in the data set with CH1/PA-1 cells (25 µM), 46.7 ± 1.9%; with CH1/PA-1 cells (50 µM), 46.8 ± 1.8%. The “Cells in S phase” value in the data set with SW480 cells [4] (0.039 µM) is recorded as 38.8 ± 7.2%; in the data set with SW480 cells [4] (0.078 µM), 46.9 ± 7.7%; in the data set with SW480 cells [4] (0.16 µM) it was 57.1 ± 0.1%; in the data set on CH1/PA-1 cells (12.5 µM), 43.1 ± 6.3%; in the data set with CH1/PA-1 cells (25 µM), 38.0 ± 4.0%; in the data set with CH1/PA-1 cells (50 µM) it was 39.3 ± 1.4%.

`CC1=C([O-])C([O-])(n2cccn2)c2ccccc2C1=O.Cc1c(C)c(C)c(C)c(C)c1C.[Ru+2]` (stereo not drawn) [Compound 6]: the half-inhibitory concentration (IC50) worked out at 2.8 ± 1.6 µM in data set [1] (24 h exposure), 0.27 ± 0.06 µM in data set [1] (96 h exposure), 38 ± 21 µM in data set [2] (24 h exposure) and 3.4 ± 0.6 µM in data set [2] (96 h exposure). Further, the “Ru [102]/cell (cellular accumulation)” value in the data set with SW480 cells [3] (2 µM) is listed as 100 ± 15 fg; with SW480 cells [3] (5 µM) it was 206 ± 32 fg. The “Cells in G1/G0 phase” value in the data set with SW480 cells [4] (0.16 µM) turned out to be 23.2 ± 4.1%; in the data set with SW480 cells [4] (0.31 µM), 15.0 ± 3.8%; in the data set with SW480 cells [4] (0.63 µM) it was 24.2 ± 2.0%; in the data set on CH1/PA-1 cells (25 µM), 25.1 ± 2.5%; in the data set on CH1/PA-1 cells (50 µM), 22.8 ± 4.7%; in the data set on CH1/PA-1 cells (75 µM), 25.6 ± 3.5%. In addition, the “Cells in G2/M phase” value came to 35.7 ± 0.7% with SW480 cells [4] (0.16 µM); 32.6 ± 4.7% in the data set with SW480 cells [4] (0.31 µM); 25.6 ± 4.5% with SW480 cells [4] (0.63 µM); 44.2 ± 7.1% in the data set with CH1/PA-1 cells (25 µM); 40.8 ± 2.5% with CH1/PA-1 cells (50 µM); 38.4 ± 3.7% with CH1/PA-1 cells (75 µM). Besides, the “Cells in S phase” value in the data set on SW480 cells [4] (0.16 µM) came to 43.7 ± 4.8%; with SW480 cells [4] (0.31 µM), 53.7 ± 4.9%; in the data set with SW480 cells [4] (0.63 µM) it was 53.5 ± 2.6%; with CH1/PA-1 cells (25 µM), 35.0 ± 0.9%; in the data set on CH1/PA-1 cells (50 µM) it was 38.6 ± 4.2%; with CH1/PA-1 cells (75 µM), 39.4 ± 2.5%.

The record behind these values is paper PMC9699003, “Arene Variation of Highly Cytotoxic Tridentate Naphthoquinone-Based Ruthenium(II) Complexes and In-Depth In Vitro Studies” (Pharmaceutics, 2022).
